Data as given in publication PMC7181827, “A Highly Glucose Tolerant ß-Glucosidase from Malbranchea pulchella (MpBg3) Enables Cellulose Saccharification” (Scientific Reports, 2020).

Tested on: T1, MpBgl3
T1 construct: native secreted enzyme purified from culture filtrate (cellobiose-grown), N-glycosylated
Assay: p-nitrophenol release, absorbance at […] nm; SigrafW fit
Assay type: biochemical, Malbranchea pulchella
Conditions: McIlvaine buffer pH 6.0, 50 °C

In the case of `O=[N+]([O-])c1ccc(O[C@@H]2O[C@H](CO)[C@@H](O)[C@H](O)[C@H]2O)cc1` [pNPG], the Km is reported as 330 µM.
